Test results taken from PubChem BioAssay (NCI).
“And” between values parts separate entries of the source, which are not always exact repeats. Identical values can stand only once.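 How tested: cells in 96-well plates exposed to compound for 48 hours at five concentrations. Abbreviation: GI50, concentration required for 50% inhibition of growth. TGI: concentration producing complete growth inhibition.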

Tests used:
Test in all cases: NCI-60 cell line screen, 48 h
[1] = tested on: 786-0 renal
[2] = tested on: ACHN renal
[3] = tested on: MOLT-4 leukemia
[4] = tested on: NCI-H226 lung
[5] = tested on: OVCAR-4 ovarian
[6] = tested on: PC-3 prostate
[7] = tested on: SK-MEL-28 melanoma
[8] = tested on: SN12C renal
[9] = tested on: U251 CNS
[10] = tested on: HCC-2998 colon

SMILES	TGI [1] [µM]	TGI [2] [µM]	TGI [3] [µM]	TGI [4] [µM]	TGI [5] [µM]	TGI [6] [µM]	TGI [7] [µM]	TGI [8] [µM]	TGI [9]	GI50 [1] [µM]	GI50 [2] [µM]	GI50 [10]	TGI [10]	GI50 [3] [µM]	GI50 [4] [µM]	GI50 [5]	GI50 [6] [µM]	GI50 [8] [µM]	GI50 [9] [µM]	GI50 [7]
O=[N+]([O-])c1ccc(CS(=O)Cc2ccccc2)cc1 (configuration not stated)	> 100	> 100	> 100	> 100	> 100	> 100	> 100	> 100	> 100 µM	–	–	–	–	–	–	–	–	–	–	–
S=c1ssc(Sc2ccccn2)c1Cl	14.4	16.7	5.84	58.8	> 100	24.2	–	25.9	22.9 µM	4.09	4.62	3.97 µM	15.1 µM	2.53	23	5.2 µM	11.9	13.2	11	–
O=c1[nH]cnc2c(C3OC(CO)C(O)C3O)scc12 (configuration not stated)	> 100	> 100	–	> 100	> 100	> 100	> 100	> 100	> 100 µM	> 100	49.1	32.3 µM	> 100 µM	–	> 100	> 100 µM	37.9	> 100	> 100	> 100 µM
CN(C)c1ccc(N=Nc2c([O-])ccc3ccccc23)cc1.[C-]#[O+].[C-]#[O+].[Ir]	> 56.3	55.2	59.5	> 100	47.8	34.5	65.4	34.5	> 69.3 µM	26.4	5.43	38.5 µM	> 79.9 µM	12.6	> 53.9	25.4 µM	17.7	17	35.1	26.3 µM
CCc1c[nH]c2ncnc(N3CC[C@@](N)(CNC(=O)c4ccc(F)cc4F)C3)c12	> 85.5	> 100	> 81.2	> 100	> 100	> 100	> 100	> 100	> 100 µM	25.9	23.8	50.7 µM	> 100 µM	18.7	22	77.2 µM	35.4	32.1	46.4	45.4 µM
CCc1c2c(nc3cccc(N)c13)-c1cc3c(c(=O)n1C2)COC(=O)[C@]3(O)CC	1.62	–	0.15	0.157	> 100	> 100	> 100	38.7	0.0348 µM and 0.03 µM	< 0.001	–	0.0349 µM and 0.02 µM	1.39 µM and 11.4 µM	< 0.001	0.00208	0.104 µM and 0.0238 µM	0.349	< 0.001	< 0.001	0.113 µM and 0.034 µM
COc1cc2cc(Oc3ccc(NC(=O)c4ccc(Cl)c(C(F)(F)F)c4)cc3)c(C)nc2cc1OC	> 100	> 100	70.5	> 100	> 100	> 100	> 100	> 100	> 100 µM	12.1	10.8	41.7 µM	> 100 µM	9.7	19.6	5.58 µM	4.3	13.2	8.72	30.3 µM
CCOC(=O)c1cnn(-c2ccnc3c(C(F)(F)F)cccc23)c1N	> 100	> 100	> 100	> 100	> 100	> 100	> 100	> 100	> 100 µM	> 100	> 100	> 100 µM	> 100 µM	> 100	> 100	> 100 µM	> 100	> 100	> 100	> 100 µM
COc1cnc2c(c1)C(=O)c1c-2n(CCCN2CCCC2)c(=O)c2cc(Cl)ccc12	9.66	6.42	6.23	14.4	11.2	9.48	16.8	–	7.96 µM	1.47	0.0753	5.07 µM	12.1 µM	0.0193	3.27	1.43 µM	0.859	–	0.0383	8.34 µM
CC(C)OC(=O)c1ccc2[nH]c(O)c(C(=Nc3ccc(N(C)C(=O)CN4CCN(C)CC4)cc3)c3ccccc3)c2c1	1.97	1.4	2.16	2.83	2.48	2.17	2.52	1.6	2.4 µM	0.327	0.332	0.792 µM	2.21 µM	0.274	1.1	1.02 µM	0.494	0.0977	0.622	1.15 µM
COc1ccc2c(c1)C(=O)c1c-2n(CCCN2CCOCC2)c(=O)c2ccccc12	9.46	4.07	> 100	7.57	> 100	> 100	> 100	> 100	11.6 µM	2.38	1.69	3.08 µM	20.4 µM	1.47	2.59	4.57 µM	8.67	4.25	2.01	11.2 µM
CCSc1nc(COC(=O)NC)c(COC(=O)NC)n1C	> 100	35.5	> 100	> 100	> 84.7	> 100	> 100	> 100	> 100 µM	–	–	–	> 100 µM	–	–	–	–	–	–	–
COc1ccc2c(c1)nc(N)c1c3cccnc3cn21	16.7	15	> 100	27	> 100	27.7	–	> 100	14.6 µM	0.115	0.0938	0.103 µM	17.5 µM	0.0861	0.737	0.294 µM	0.0412	0.382	0.0474	–
Nc1nc(OCc2ccccc2)nc2[nH]ncc12	44.4	> 100	> 100	32.6	63.4	39.9	35.2	28.5	42.2 µM	18.7	25.5	–	–	24.3	14.8	17.5 µM	16.8	13.9	18.9	17 µM
